Measurements from US12441725B2, “ISO-citrate dehydrogenase (IDH) inhibitor” (ZHEJIANG METON PHARMACEUTICAL CO., LTD, priority 2019, dated 2025).

Legend:
IDH1 R132H = target: T1, IDH1 R132H (Homo sapiens, UniProt O75874, R132H); assay: Biochemical assay for IDH inhibition (NADPH fluorescence), mutant IDH1 R132H; conditions: 50 nM IDH1-R132H, 1 hour pre-incubation, in triplet
T1 construct: 6xHis
From the text: (§1) The present disclosure provides a biochemical assay method for detecting the IDH inhibition and selectivity of the compounds by detecting IDH enzyme activity directly.
(§2) Wild-type IDH enzymes convert NADP^+ to NADPH when catalyzing the α-KG producing reaction. Mutant IDH enzymes convert NADPH to NADP^+ when catalyzing the D-2-HG producing reaction. So, the activity of wild-type and mutant IDH1/2 could be measured by monitoring NADPH level change as NADPH is fluorescent (Excitation 340 nm, Emission 460 nm). By monitoring the change of NADPH level in the reaction, the enzyme activity could be determined rapidly and efficiently and IC50 of a compound could also be assayed.
(§3) The test compounds are prepared into 50 mM stock solutions in DMSO and stored at −20° C. Each test compound stock is further diluted to obtain a 100× stock solution at a concentration of 400 μM, 200 μM, 100 μM, 50 μM, 25 μM, 12.5 μM, 6.25 μM and 3.125 μM, respectively, for the final use on the day of test (the concentration range of 100× stock solutions might be adjusted to cover the estimated IC50 of a specific test compound).
(§4) Inhibition of Mutant IDH1 (R132H or R132C):
(§5) To assay the enzymatic activity of mutant IDH1 proteins, 25 nM IDH1-R132C or 50 nM IDH1-R132H protein solutions are prepared in 20 mM Tris-HCl pH7.5, 150 mM NaCl, 10 mM MgCl2, 1 mM DTT, 0.05 mg/ml BSA and 1.33 mM α-KG. 148 μL 25 nM IDH1-R132C or 50 nM IDH1-R132H protein solutions are mixed with 2 μL DMSO (vehicle control for test compounds) or an above-mentioned 100× stock solution of a test compound and incubated for 1 hour at room temperature. Extra reactions containing 148 μL no-enzyme solution (20 mM Tris-HCl pH7.5, 150 mM NaCl, 10 mM MgCl2, 1 mM DTT, 0.05 mg/ml BSA and 1.33 mM α-KG) and 2 μL DMSO are also set up as background controls. Then each reaction is initiated by adding 50 μL 80 μM NADPH solution prepared in 20 mM Tris-HCl pH7.5, 150 mM NaCl, 10 mM MgCl2, 1 mM DTT and 0.05 mg/ml BSA. BioTek Synergy H1 Microplate reader (BioTek Instruments Inc., Winooski, U.S.) is employed to monitor the NADPH fluorescence (Excitation 340 nm, Emission 460 nm) every 42 seconds for 15 minutes. NADPH change rate is determined according to the linear phase of the fluorescence-time curve and results from the background control reactions are used as background subtraction to calculate the net NADPH change rates of other reactions. The net NADPH change rates from the vehicle control reactions are used as 100% enzymatic activity and thus the relative enzymatic activity of reactions with test compounds added could be determined. Then a dose-response curve is drawn for each test compound and the corresponding IC50 is calculated. The IC50 value is used to evaluate the inhibition and selectivity of each test compound on the IDH enzymatic activity.
(§6) The IDH inhibition activity of the compounds were assessed according to Test 2 of the Biological Assay section. The test for mutant IDH1 R132H and IDH1 R132C inhibition of each compound was carried out in triplet. As used in Table 5, “A” refers to an inhibitory activity against IDH1 R132H or IDH1 R132C with an IC50<0.1 μM; “B” refers to an inhibitory activity against IDH1 R132H or IDH1 R132C with an IC50 from 0.1 μM to 0.5 μM; “C” refers to an inhibitory activity against IDH1 R132H or IDH1 R132C with an IC50 from 0.5 μM to 1 μM; “D” refers to an inhibitory activity against IDH1 R132H or IDH1 R132C with an IC50>1 μM.

[1] = target: T2, IDH (endogenous IDH1 R132C) in HT1080 cell (Homo sapiens, UniProt O75874, R132C); assay: Cell-based assay for IDH inhibition (decrease of D-2-HG) in HT1080 cells; conditions: human fibrosarcoma cell line HT1080, 16 hours treatment, D-2-HG by LC-MS, in triplet
T2 construct: which harbor endogenous heterozygous IDH1 R132C and R132H mutation respectively and accumulate D-2-HG
From the text: The present disclosure also provides a cell-based method for assaying IDH inhibition and selectivity of the compounds in human fibrosarcoma cell line HT1080 and cholangiocarcinoma cell line HCCC 9810, which harbor endogenous heterozygous IDH1 R132C and R132H mutation respectively and accumulate D-2-HG. Tumor -derived IDH mutant lost its normal activity of producing α-KG, and gained a new activity of producing D-2-HG. D-2-HG is a metabolite specifically elevated in tumor cells expressing mutant IDH1 or IDH2 proteins. When treating such mutant IDH-expressing tumor cells with an effective IDH inhibitor, the synthesis of D-2-HG is blocked, and D-2-HG concentration is decreased by the oxidation reaction catalyzed by the endogenous D-2-HG dehydrogenase.
To perform a cell-based IDH inhibition assay, HT1080 and HCCC 9810 cells (or other cell lines harboring different IDH mutations) are cultured in DMEM supplemented with 10% FBS. The cells are treated with compounds of present disclosure at various different concentrations. 16 hours after the treatment, culture medium supernatants are removed and cell metabolites are extracted by 40% methanol and 40% acetonitrile in water (pre-chilled under −80° C.) at 4° C. for 1 hour. The extract supernatants are collected and cell debris are removed via high speed centrifugation. The resulting metabolite extracts are analyzed on an Agilent LC-MS system (model: 1290-6470) for 2-HG and glutamate concentration. A HILIC-Z column (2.1 mm×100 mm, […]) is employed on HPLC. Mobile phase A is 15 mM CH3COONH4 and 0.3% NH3·H2O in water. Mobile phase B is 15 mM CH3COONH4 and 0.3% NH3·H2O in 90% MeCN/10% H2O solvent. An 19% solvent A and 81% solvent B isocratic gradient method is used at a flow rate of 0.3 ml/min. D-2-HG is ionized under negative ion spray mode and detected through the multiple-reaction monitoring of a mass transition pair at m/z=147.0/128.9 and 147.0/85.1. Glutamate is ionized under ion spray mode and detected on negative polarity multiple-reaction monitoring of a mass transition pair at m/z=146/102 and 146/128 and its level is used to normalize 2-HG concentration. The activity of cellular mutant IDH proteins in the presence of each test compound at different concentrations can be represented by relative D-2-HG concentration to negative control samples (i.e., cells are treated with DMSO only), and the IC50 value could be determined to evaluate the inhibition and selectivity of each test compound on the IDH enzymatic activity.
The IDH inhibition activity of the compounds were assessed in human fibrosarcoma cell line HIT1080 according to Test 3 of the Biological Assay section. The test for IDH inhibition of each compound was carried out in triplet. As used in Table 6, “A” refers to an IDH inhibitory activity with an IC50<0.1 μM; “B” refers to an IDH inhibitory activity with an IC50 from 0.1 μM to 0.5 μM; “C” refers to an IDH inhibitory activity with an IC50 from 0.5 μM to 1 μM; “D” refers to an IDH inhibitory activity with an IC50>1 μM.

IDH1 R132C = target: T3, IDH1 R132C (Homo sapiens, UniProt O75874, R132C); assay: Biochemical assay for IDH inhibition (NADPH fluorescence), mutant IDH1 R132C; conditions: 25 nM IDH1-R132C, 1 hour pre-incubation, in triplet
T3 construct: 6xHis
From the text: as §1, §2, §3, §4, §5, §6

T2 sequence (O75874 2-414 R132C): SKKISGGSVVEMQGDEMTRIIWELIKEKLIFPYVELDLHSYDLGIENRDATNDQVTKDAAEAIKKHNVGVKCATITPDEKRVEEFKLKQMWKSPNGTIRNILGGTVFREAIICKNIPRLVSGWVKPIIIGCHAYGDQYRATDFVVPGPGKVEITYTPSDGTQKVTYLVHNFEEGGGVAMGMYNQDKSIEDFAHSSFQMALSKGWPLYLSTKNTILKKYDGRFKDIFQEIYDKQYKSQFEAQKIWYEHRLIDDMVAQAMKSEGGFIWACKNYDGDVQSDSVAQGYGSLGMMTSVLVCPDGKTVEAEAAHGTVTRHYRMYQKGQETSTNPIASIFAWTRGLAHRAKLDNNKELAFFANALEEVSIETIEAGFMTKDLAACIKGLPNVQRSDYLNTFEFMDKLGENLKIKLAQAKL
T3 sequence (O75874 whole entry R132C): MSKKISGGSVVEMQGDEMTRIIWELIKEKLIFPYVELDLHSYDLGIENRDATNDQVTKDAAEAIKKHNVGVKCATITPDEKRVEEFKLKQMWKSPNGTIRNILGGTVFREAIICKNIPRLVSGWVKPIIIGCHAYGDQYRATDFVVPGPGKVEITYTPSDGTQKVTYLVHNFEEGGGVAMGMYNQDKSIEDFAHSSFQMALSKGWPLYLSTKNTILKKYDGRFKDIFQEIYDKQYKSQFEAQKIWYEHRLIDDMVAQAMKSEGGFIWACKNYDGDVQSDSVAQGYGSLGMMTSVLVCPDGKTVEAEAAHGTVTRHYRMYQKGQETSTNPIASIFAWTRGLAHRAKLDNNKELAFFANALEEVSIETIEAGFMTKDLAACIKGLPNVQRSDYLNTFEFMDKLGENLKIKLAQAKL
T1 sequence (O75874 whole entry R132H): as the sequence (O75874 whole entry R132C) above, with C132H counted along it

CCN1Cc2c(ccnc2N[C@@H](C)c2ccc(Oc3ccc4c(cnn4C)c3)c(F)c2)C1=O [Compound 1, 2-ethyl-4-[[(1S)-1-[3-fluoro-4-(1-methylindazol-5-yl)oxy-phenyl]ethyl]amino]-3H-pyrrolo[3,4-c]pyridin-1-one]
IC50 (IDH1 R132H): 100 to 500 nM | IC50 [1]: 500 to 1000 nM | IC50 (IDH1 R132C): 100 to 500 nM

CCN1Cc2c(ccnc2N[C@@H](C)c2ccc(Oc3cccc4c3ccn4C)c(F)c2)C1=O [Compound 2, (S)-2-ethyl-4-((1-(3-fluoro-4-((1-methyl-1H-indol-4-yl)oxy)phenyl)ethyl)amino)-2,3-dihydro-1H-pyrrolo[3,4-c]pyridin-1-one]
IC50 (IDH1 R132H): 100 to 500 nM | IC50 [1]: 500 to 1000 nM | IC50 (IDH1 R132C): 100 to 500 nM

CCN1Cc2c(ccnc2N[C@@H](C)c2ccc(Oc3ccc4c(ccn4C)c3)c(F)c2)C1=O [Compound 3, (S)-2-ethyl-4-((1-(3-fluoro-4-((1-methyl-1H-indol-5-yl)oxy)phenyl)ethyl)amino)-2,3-dihydro-1H-pyrrolo[3,4-c]pyridin-1-one]
IC50 (IDH1 R132H): 100 to 500 nM | IC50 [1]: 500 to 1000 nM | IC50 (IDH1 R132C): 100 to 500 nM

CCN1Cc2c(ccnc2N[C@@H](C)c2ccc(Oc3cnn(C)c3)c(F)c2)C1=O [Compound 4, (S)-2-ethyl-4-((1-(3-fluoro-4-((1-methyl-1H-pyrazol-4-yl)oxy)phenyl)ethyl)amino)-2,3-dihydro-1H-pyrrolo[3,4-c]pyridin-1-one]
IC50 (IDH1 R132H): > 1000 nM | IC50 [1]: > 1000 nM | IC50 (IDH1 R132C): > 1000 nM

CCN1Cc2c(ccnc2N[C@@H](C)c2ccc(OC3Cc4ccccc4C3)c(F)c2)C1=O [Compound 5, (S)-4-((1-(4-((2,3-dihydro-1H-inden-2-yl)oxy)-3-fluorophenyl)ethyl)amino)-2-ethyl-2,3-dihydro-1H-pyrrolo[3,4-c]pyridin-1-one]
IC50 (IDH1 R132H): 500 to 1000 nM | IC50 [1]: > 1000 nM | IC50 (IDH1 R132C): 500 to 1000 nM

CCN1Cc2c(ccnc2N[C@@H](C)c2ccc(OC3CCc4ccccc43)c(F)c2)C1=O (stereo partly drawn) [Compound 6, 4-(((1S)-1-(4-((2,3-dihydro-1H-inden-1-yl)oxy)-3-fluorophenyl)ethyl)amino)-2-ethyl-2,3-dihydro-1H-pyrrolo[3,4-c]pyridin-1-one]
IC50 (IDH1 R132H): 500 to 1000 nM | IC50 [1]: > 1000 nM | IC50 (IDH1 R132C): > 1000 nM

CCN1Cc2c(ccnc2N[C@@H](C)c2ccc(Oc3ccc(C(C)(C)C)nc3)c(F)c2)C1=O [Compound 7, (S)-4-((1-(4-((6-(tert-butyl)pyridin-3-yl)oxy)-3-fluorophenyl)ethyl)amino)-2-ethyl-2,3-dihydro-1H-pyrrolo[3,4-c]pyridin-1-one]
IC50 (IDH1 R132H): 100 to 500 nM | IC50 [1]: 500 to 1000 nM | IC50 (IDH1 R132C): > 1000 nM

CCN1Cc2c(ccnc2N[C@@H](C)c2ccc(Oc3ccc4c(c3)ncn4C)c(F)c2)C1=O [Compound 8, (S)-2-ethyl-4-((1-(3-fluoro-4-((1-methyl-1H-benzo[d]imidazol-5-yl)oxy)phenyl)ethyl)amino)-2,3-dihydro-1H-pyrrolo[3,4-c]pyridin-1-one]
IC50 (IDH1 R132H): > 1000 nM | IC50 [1]: > 1000 nM | IC50 (IDH1 R132C): > 1000 nM

CCN1Cc2c(ccnc2N[C@@H](C)c2ccc(Oc3ccc4c(ccn4C(C)C)c3)c(F)c2)C1=O [Compound 9, (S)-2-ethyl-4-((1-(3-fluoro-4-((1-isopropyl-1H-indol-5-yl)oxy)phenyl)ethyl)amino)-2,3-dihydro-1H-pyrrolo[3,4-c]pyridin-1-one]
IC50 (IDH1 R132H): 100 to 500 nM | IC50 [1]: 100 to 500 nM | IC50 (IDH1 R132C): 100 to 500 nM

CCN1Cc2c(ccnc2N[C@@H](C)c2ccc(Oc3ccc4c(ccn4CCO)c3)c(F)c2)C1=O [Compound 10, (S)-2-ethyl-4-((1-(3-fluoro-4-((1-(2-hydroxyethyl)-1H-indol-5-yl)oxy)phenyl)ethyl)amino)-2,3-dihydro-1H-pyrrolo[3,4-c]pyridin-1-one]
IC50 (IDH1 R132H): 500 to 1000 nM | IC50 [1]: > 1000 nM | IC50 (IDH1 R132C): > 1000 nM

CCN1Cc2c(ccnc2N[C@@H](C)c2ccc(Oc3ccc4c(c3)cc(C)n4C)c(F)c2)C1=O [Compound 11, (S)-4-((1-(4-((1,2-dimethyl-1H-indol-5-yl)oxy)-3-fluorophenyl)ethyl)amino)-2-ethyl-2,3-dihydro-1H-pyrrolo[3,4-c]pyridin-1-one]
IC50 (IDH1 R132H): 100 to 500 nM | IC50 [1]: > 1000 nM | IC50 (IDH1 R132C): 100 to 500 nM

CCN1Cc2c(ccnc2N[C@H](C)c2ccc(Oc3ccccc3)c(F)c2)C1=O [Compound 12, (R)-2-ethyl-4-((1-(3-fluoro-4-phenoxyphenyl)ethyl)amino)-2,3-dihydro-1H-pyrrolo[3,4-c]pyridin-1-one]
IC50 (IDH1 R132H): > 1000 nM | IC50 [1]: > 1000 nM | IC50 (IDH1 R132C): > 1000 nM

CCN1Cc2c(ccnc2N[C@@H](C)c2ccc(Cc3ccnc(C(F)(F)F)c3)c(F)c2)C1=O [Compound 53, (S)-2-ethyl-4-((1-(3-fluoro-4-((2-(trifluoromethyl)pyridin-4-yl)methyl)phenyl)ethyl)amino)-2,3-dihydro-1H-pyrrolo[3,4-c]pyridin-1-one]
IC50 (IDH1 R132H): > 1000 nM | IC50 (IDH1 R132C): > 1000 nM
